# Assay results: patent US20220073536A1 (Rigel Pharmaceuticals, Inc., priority 2003, published 2022)
# Counter-ions that a name gives are not always drawn. Like-named read-outs stand apart in the source and are kept apart here.
# Tested on: cultured human mast cells (CHMC)
# Experiment: CHMC low cell density IgE activation: tryptase assay
# Format: cell-based
# Details: low cell density CHMC, IgE activation
# Procedure, shortened: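 Anti-IgE-driven degranulation of cultured human mast cells at low density, 1000–1500 cells/well, was induced over 30 min at 37 °C. It was scored by supernatant tryptase activity on a fluorogenic substrate.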
# [1] = tryptase readout, 8 pt, read-out: LD Tryptase, CHMC, IgE, 8 pt
# [2] = tryptase readout, 3 pt, read-out: LD Tryptase, CHMC, IgE, 3 pt
# [3] = Homo sapiens, Mast cell, tryptase, 3 pt, read-out: LD Tryptase, CHMC, IgE, 3 pt
# [4] = tryptase, 8 pt, read-out: LD Tryptase, CHMC, IgE, 8 pt
# [5] = tryptase, 3 pt, read-out: LD Tryptase, CHMC, IgE, 3 pt
# [6] = Homo sapiens, Mast cell, tryptase, 8 pt, read-out: LD Tryptase, CHMC, IgE, 8 pt
Structure (SMILES),IC50 [3] [µM],IC50 [4] [µM],also measured
"CC1(C)Oc2ccc(Nc3nc(Nc4cccc(N5CCOCC5)c4)ncc3F)nc2NC1=O [Compound 1078, N4-(2,2-Dimethyl-3-oxo-4H-5-pyrid[1,4]oxazin-6-yl)-5-fluoro-N2-(3-morpholinophenyl)-2,4-pyrimidinediamine]",,,IC50 [1]: < 10 µM
"CNC(=O)COc1cccc(Nc2ncc(F)c(Nc3ccc4c(n3)NC(=O)C(C)(C)O4)n2)c1C [Compound 1079, N4-(2,2-Dimethyl-3-oxo-4H-5-pyrid [1,4]oxazin-6-yl)-5-fluoro-N2-[2-methyl-3-(N-methylamino)carbonylmethyleneoxyphenyl]-2,4-pyrimidinediamine]",,,IC50 [1]: < 10 µM
"CN1CCN(c2cccc(Nc3ncc(F)c(Nc4ccc5c(n4)NC(=O)C(C)(C)O5)n3)c2)CC1 [Compound 1080, N4-(2,2-Dimethyl-3-oxo-4H-5-pyrid [1,4]oxazin-6-yl)-5-fluoro-N2-[3-(4-methylpiperazino)phenyl]-2,4-pyrimidinediamine]",,,IC50 [1]: < 10 µM
"COc1ccc(Nc2ncc(F)c(Nc3ccc4c(n3)NC(=O)[C@H](C)O4)n2)cc1Cl [Compound 1081, (S)-N2-(3-Chloro-4-methoxyphenyl)-5-fluoro-N4-(2-methyl-3-oxo-2H,4H-5-pyrid[1,4]oxazin-6-yl)-2,4-pyrimidinediamine]",,,IC50 [2]: < 10 µM; IC50 [1]: < 10 µM
"COc1cc(Nc2ncc(F)c(Nc3ccc4c(n3)NC(=O)[C@H](C)O4)n2)cc(OC)c1OC [Compound 1082, (S)-5-Fluoro-N4-(2-methyl-3-oxo-2H,4H-5-pyrid[1,4]oxazin-6-yl)-N2-(3,4,5-trimethoxyphenyl)-2,4-pyrimidinediamine]",,,IC50 [2]: < 10 µM; IC50 [1]: < 10 µM
"O=C1COc2ccc(Nc3ncc(F)c(Nc4ccc5c(c4)NC(=O)CO5)n3)cc2N1 [Compound 1083, N2,N4-Bis (3-oxo-2H,4H-benz[1,4]oxazin-6-yl)-5-fluoro-2,4-pyrimidinediamine]",,,"IC50 (Homo sapiens, Mast cell, tryptase readout, 3 pt, read-out: LD Tryptase, CHMC, IgE, 3 pt): < 10 µM; IC50 (Homo sapiens, Mast cell, tryptase readout, 8 pt, read-out: LD Tryptase, CHMC, IgE, 8 pt): < 10 µM"
"Cc1cc(C)cc(Nc2ncc(F)c(Nc3ccc4c(n3)NC(=O)[C@H](C)O4)n2)c1 [Compound 1084, (S)-N2-(3,5-Dimethylphenyl)-5-fluoro-N4-(2-methyl-3-oxo-2H,4H-5-pyrid[1,4]oxazin-6-yl)-2,4-pyrimidinediamine]",,,IC50 [2]: > 10 µM; IC50 [1]: < 10 µM
CCOC(=O)N1CCN(c2cccc(Nc3ncc(F)c(NC4CN(C(=O)OC(C)(C)C)C4)n3)c2)CC1 [Compound 1129],> 10,,
CCOC(=O)N1CCN(c2cccc(Nc3ncc(F)c(NC4CNC4)n3)c2)CC1 [Compound 1130],> 10,,
CN1CCN(c2ccc(Nc3ncc(F)c(NC4CNC4)n3)cc2)CC1 [Compound 1131],> 10,,
"Fc1cnc(Nc2cccc(-c3cnco3)c2)nc1Nc1ccc2c(n1)NCCO2 [Compound 1132, N4-(3,4-Dihydro-2H,4H-5-pyrid[1,4]oxazin-6-yl)-5-fluoro-N2-[3-(oxazol-5-yl)phenyl]-2,4-pyrimidinediamine]",,< 10,
"CN(c1nc(Cl)ncc1F)C1CCC1 [Compound 1133, 2-Chloro-N4-cyclobutyl-5-fluoro-N4-methyl-4-pyrimidineamine]",> 10,,
"CC(=O)N1CCN(c2ccc(Nc3ncc(F)c(Nc4ccc5c(n4)NCCO5)n3)cc2)CC1 [Compound 1134, N2-[4-(4-Acetylpiperazino)phenyl]-N4-(3,4-dihydro-2H,4H-5-pyrid[1,4]oxazin-6-yl)-5-fluoro-2,4-pyrimidinediamine]",,< 10,IC50 [5]: < 10 µM
"CCOC(=O)N1CCN(c2ccc(Nc3ncc(F)c(Nc4ccc5c(n4)NCCO5)n3)cc2)CC1 [Compound 1135, N4-(3,4-Dihydro-2H,4H-5-pyrid[1,4]oxazin-6-yl)-N2-[4-(4-ethoxycarbonylpiperazino)phenyl]-5-fluoro-2,4-pyrimidinediamine]",,< 10,IC50 [5]: < 10 µM
"Fc1cnc(Nc2cccc(N3CCOCC3)c2)nc1Nc1ccc2c(n1)NCCO2 [Compound 1136, N4-(3,4-Dihydro-2H,4H-5-pyrid[1,4]oxazin-6-yl)-5-fluoro-N2-(3-morpholinophenyl)-2,4-pyrimidinediamine]",,< 10,IC50 [5]: < 10 µM
"CC(=O)N1CCN(c2cccc(Nc3ncc(F)c(Nc4ccc5c(n4)NCCO5)n3)c2)CC1 [Compound 1137, N2-[3-(4-Acetylpiperazino)phenyl]-N4-(3,4-dihydro-2H,4H-5-pyrid[1,4]oxazin-6-yl)-5-fluoro-2,4-pyrimidinediamine]",,< 10,IC50 [5]: < 10 µM
"CCOC(=O)N1CCN(c2cccc(Nc3ncc(F)c(Nc4ccc5c(n4)NCCO5)n3)c2)CC1 [Compound 1138, N4-(3,4-Dihydro-2H,4H-5-pyrid[1,4]oxazin-6-yl)-N2-[3-(4-ethoxycarbonylpiperazino)phenyl]-5-fluoro-2,4-pyrimidinediamine]",,< 10,IC50 [5]: < 10 µM
"CN1CCN(c2ccc(Nc3ncc(F)c(NC4CCC4)n3)cc2Cl)CC1 [Compound 1188, N4-Cyclobutyl-5-fluoro-N2-[3-chloro-4-(4-methylpiperazino)phenyl]-2,4-pyrimidinediamine]",< 10,,
"CC(=O)N1CCN(c2ccc(Nc3ncc(F)c(NC4CCC4)n3)cc2)CC1 [Compound 1192, N2-[4-(4-Acetylpiperazino)phenyl]-N4-cyclobutyl-5-fluoro-2,4-pyrimidinediamine Bis Hydrogen Chloride Salt]",,,IC50 [5]: < 10 µM
"CN1CCN(c2ccc(Nc3ncc(F)c(NC4CCCC4)n3)cc2Cl)CC1 [Compound 1195, N2-[3-Chloro-4-(4-methylpiperazino)phenyl]-N4-cyclopentyl-5-fluoro-2,4-pyrimidinediamine]",< 10,,
"CN1CCN(c2ccc(Nc3ncc(F)c(Nc4cc(C5CC5)n[nH]4)n3)cc2Cl)CC1 [Compound 1196, N2-[3-Chloro-4-(4-methylpiperazino)phenyl]-N4-(3-cyclopropyl-1H-pyrazol-5-yl)-5-fluoro-2,4-pyrimidinediamine]",< 10,,
"CN1CCN(c2ccc(Nc3ncc(F)c(Nc4ccc5c(n4)NCCO5)n3)cc2Cl)CC1 [Compound 1197, N2-[3-Chloro-4-(4-methylpiperazino)phenyl]-N4-(3,4-dihydro-2H,4H-5-pyrid[1,4]oxazin-6-yl)-5-fluoro-2,4-pyrimidinediamine]",,< 10,IC50 [5]: < 10 µM
"CN1CCN(c2ccc(Nc3ncc(F)c(NC4CCCCC4)n3)cc2Cl)CC1 [Compound 1199, N2-[3-Chloro-4-(4-methylpiperazino)phenyl]-N4-cyclohexyl-5-fluoro-2,4-pyrimidinediamine Bis Hydrogen Chloride Salt]",,< 10,
Cc1cc(Nc2ncc(F)c(NC3CCCC3)n2)ccc1N1CCN(C)CC1 [Compound 1200],< 10,,
Cc1cc(Nc2ncc(F)c(NC3CCCCC3)n2)ccc1N1CCN(C)CC1 [Compound 1201],< 10,,IC50 [6]: < 10 µM
Cc1cc(Nc2ncc(F)c(Nc3cc(C4CC4)n[nH]3)n2)ccc1N1CCN(C)CC1 [Compound 1202],< 10,,IC50 [6]: < 10 µM
"Cc1cc(Nc2ncc(F)c(Nc3ccc4c(n3)NCCO4)n2)ccc1N1CCN(C)CC1 [Compound 1203, N4-(3,4-Dihydro-2H,4H-5-pyrid[1,4]oxazin-6-yl)-5-fluoro-N2-[3-methyl-4-(4-methylpiperazino)phenyl]-2,4-pyrimidinediamine]",,< 10,IC50 [5]: < 10 µM
CC(C)Nc1nc(Nc2ccc(N3CCN(C)CC3)cc2)ncc1F [Compound 1204],< 10,,
CC(C)Nc1nc(Nc2ccc(N3CCN(C)CC3)c(Cl)c2)ncc1F [Compound 1205],< 10,,
